What was measured:
Rabbit Platelet [1] = assay: PAF-induced platelet aggregation; format: cell-based; conditions: Oryctolagus cuniculus, washed rabbit platelets, 60 sec preincubation, PAF 0.2 nM to 0.2 μM, aggregation at 60 sec
Experimental: (§1) PAF-induced platelet aggregation and secretion: Washed, [^3 H]serotonin-labeled rabbit platelets were prepared as previously described in COX, C. P , J. LINDEN and S. I. SAID: VIP elevates platelet cyclic AMP (cAMP) levels and inhibits in vitro platelet activation induced by platelet activating factor (PAF). Peptides 5:25-28, 1984, and maintained in an atmosphere of 5% CO2 at 37° C. until used in the bioassay. Aliquots of platelets (2.5×10^8 /ml) were incubated with either an antagonist of PAF or the appropriate vehicle for 60 sec prior to the addition of PAF (0.2 nM to 0.2 μM). Aggregation was continuously monitored on a strip-chart recorder and recorded as the height of the tracing at 60 sec after the addition of PAF. Secretion of [^3 H] serotonin was measured in a sample of the platelet suspension removed at 60 sec after the addition of PAF. The percent inhibition of aggregation and secretion was calculated by comparing antagonist-treated platelets with the appropriate vehicle-treated control platelets. Each combination of antagonist and PAF was repeated using different platelet preparations. IC50 values were determined by inspection of the dose-response curves.

Human Platelet Receptor = Human Platelet Receptor (Homo sapiens, UniProt P25105)
Experimental: Inhibition of ^3 H-PAF Binding to Human Platelet Membrane Receptors
Receptor Preparation: Ten units of in-dated human packed platelets, each containing 45-65 ml platelet rich-plasma, were purchased from a commercial blood bank. Disposable plasticware was used throughout for receptor preparation. The units were pooled and a 1 ml aliquot was removed for determination of platelet concentration, using a Coulter Counter. The remaining platelet rich plasma was dispensed into 50 ml conical tubes and centrifuged at room temperature for 15 minutes at 3000 RPM (2300×g).Plasma was decanted and the platelets were resuspended in 35 ml of buffer (10 mM Trizma 7.0, 2 mM EDTA (dipotassium salt), and 150 mM KCl) and transferred to fresh tubes, which were centrifuged again as above. The platelets were washed 3 times, avoiding contaminating erythrocytes at the bottom of the pellets. Pellets were consolidated at each step, and by the last wash with EDTA/KCl buffer, most of the erythrocytes were in 1 tube. The pellets were resuspended in buffer containing 10 mM Trizma 7.0 with 10 mM CaCl2. Following centrifugation, the buffer was decanted and the pellets were resuspended in the CaCl2 buffer, avoiding erythrocyte contamination by recovering less than 100% of the platelet pellets. The resuspended platelets were dispensed in 8-10 ml aliquots into Corex tubes and disrupted by three cycles of freezing (dry ice/ethanol) and thawing (24° C.). The tubes were centrifuged at 40,000×g for 20 minutes at 4° C. Supernatants were decanted and each pellet was resuspended in 5-7 ml 10 mM Trizma 7.0. All resuspended pellets were pooled and aliquots of about 1200 μl were dispensed into 1.5 ml microfuge tubes and frozen at -70° C. Protein content was determined by a fluorescamine protein assay.
Assay Methods: Receptor Characterization--Each receptor preparation was evaluated to determine the number of receptor populations, the number of PAF receptor equivalents/mg protein and the dissociation constant (KD) for PAF binding. This required 2-3 experiments in which the protein concentration was held constant and the ^3 H-PAF ligand concentration was varied from approximately 0.10-2.5 nM and the data was analyzed by Scatchard methodology. Total incubation volume was 250 μl for these procedures and incubations were conducted at 24° C. for 30 minutes. For further experimentation, total incubation volumes are 500 μl. Protein and ligand concentrations were adjusted to give 0.075 nM receptor equivalents in the presence of 0.75 nM ^3 H-PAF. Each receptor preparation was then used to determine the dose--response displacement relationship of unlabeled PAF and the PAF antagonist, triazolam.
Assay Methods: Routine Assay of Compounds--The compounds were weighed precisely and solubilized in quantities of DMSO such that a 5 μl aliquot in the incubate would deliver the desired compound concentration. Compounds tested for the first time in this assay were evaluated at a concentration of 50 μM in the incubation medium. […] Triazolam was always included in each screening assay as a compound inhibition control. […] Nonspecific binding control solution was made by drying to completion about 26.2 μl unlabeled PAF under a stream of argon. PAF was resolubilized in 1000 μl DMSO. When delivered in a 5 μl aliquot, the final concentration of 1 μM PAF in the incubate exceeded by 1000-fold the concentration of ^3 H-PAF.
All buffers containing proteins were made at room temperature on the day of assay. […]

Rabbit Platelet [2] = assay: PAF-induced platelet secretion ([3H]serotonin); format: cell-based; conditions: Oryctolagus cuniculus, washed [3H]serotonin-labeled rabbit platelets, 60 sec preincubation, PAF 0.2 nM to 0.2 μM, secretion at 60 sec
Experimental: as §1

Sequence of Human Platelet Receptor (P25105 whole entry): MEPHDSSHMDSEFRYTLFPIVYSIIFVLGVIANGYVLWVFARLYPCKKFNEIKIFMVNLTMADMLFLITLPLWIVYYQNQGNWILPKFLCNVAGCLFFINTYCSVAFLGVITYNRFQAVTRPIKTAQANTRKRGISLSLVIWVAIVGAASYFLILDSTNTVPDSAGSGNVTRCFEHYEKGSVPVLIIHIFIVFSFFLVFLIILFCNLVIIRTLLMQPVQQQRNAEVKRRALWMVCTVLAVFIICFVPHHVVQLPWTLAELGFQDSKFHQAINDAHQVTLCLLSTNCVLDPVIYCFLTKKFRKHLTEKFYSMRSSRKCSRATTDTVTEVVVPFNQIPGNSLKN

Row | SMILES | IC50 (Rabbit Platelet [1]) | IC50 (Human Platelet Receptor) | IC50 (Rabbit Platelet [2]) | inhibition at 50 µM (Human Platelet Receptor; read-out: inhibition of 3H-PAF binding)
1 | O=C(CC1CCCCC1)c1ccc(Cn2ccc3ncnc-3c2)cc1 [2 Cyclohexyl-1-[4-(5H-Imidazo[4,5-c]Pyridin 5-yl-Methyl)Phenyl]Ethanone] | 948 nM | 4.44 nM | 131 nM | 
2 | C=CCC(C(=O)c1ccc(Cn2ccc3ncnc-3c2)cc1)C1CCCCC1 (stereo not shown) [2-Cyclohexyl-1-[4-(5H-Imidazo[4,5-c]Pyridin-5-yl-Methyl)Phenyl]-4-Penten-1-One] | 633 nM | 2.22 nM | 105 nM | 
3 | O=C(c1ccc(Cn2ccc3ncnc-3c2)cc1)C(C1CCCCC1)C1CCCC1 (stereo not shown) [2-Cyclohexyl-2-Cyclopentyl-1-[4-(5H Imidazol[4,5-c]Pyridin-5-yl-Methyl)Phenyl]Ethanone] | 279 nM | 1.46 nM | 89 nM | 
4 | O=C(CC1CCCC1)c1ccc(Cn2ccc3ncnc-3c2)cc1 [2-Cyclopentyl-1-[4-(5H-Imidazo[4,5-c]Pyridin-5-yl-Methyl)Phenyl]Ethanone] | 2590 nM | 8.41 nM | 379 nM | 
5 | Cc1nnc2n1-c1ccc(Cl)cc1C(c1ccccc1Cl)=NC2 [triazolam, reference compound] |  |  |  | ~50%

Source: patent US4988707A, “Pharmacologically active phenylalkanoyl substituted imidazo (4,5-C) pyridines” (G. D. Searle & Co., priority 1989, dated 1991)
